The test has as its target T1, human V1a receptor (Homo sapiens, UniProt P37288).
T1 construct: expressed in transfected cells; host or cells: HEK293 cells, transiently transfected; cell membranes
The test can be described thus: human V1a receptor binding (3H-Vasopressin SPA, HEK293 membranes). The method, then:
The human V1a receptor was cloned by RT-PCR from total human liver RNA. The coding sequence was subcloned in an expression vector after sequencing to confirm the identity of the amplified sequence. […] Cell membranes were prepared from HEK293 cells transiently transfected with the expression vector and grown in 20 liter fermenters with the following protocol.
50 g of cells are resuspended in 30 ml freshly prepared ice cold Lysis buffer (50 mM HEPES, 1 mM EDTA, 10 mM magnesium dichloride adjusted to pH=7.4+complete cocktail of protease inhibitor (Roche Diagnostics)). Homogenized with Polytron for 1 min and sonicated on ice for 2×2 minutes at 80% intensity (Vibracell sonicator). The preparation is centrifuged 20 min at 500 g at 4° C., the pellet is discarded and the supernatant centrifuged 1 hour at 43′000 g at 4° C. (19'000 rpm). The pellet is resuspended in 12.5 ml Lysis buffer+12.5 ml sucrose 20% and homogenized using a Polytron for 1-2 min. The protein concentration is determined by the Bradford method and aliquots are stored at −80° C. until use. For binding studies 60 mg Yttrium silicate SPA beads (Amersham®) are mixed with an aliquot of membrane in binding buffer (50 mM Tris, 120 mM sodium chloride, 5 mM potassium chloride, 2 mM calcium dichloride, 10 mM magnesium dichloride) for 15 minutes with mixing. 50 μl of bead/membrane mixture is then added to each well of a 96 well plate, followed by 50 μl of 4 nM 3H-Vasopressin (American Radiolabeled Chemicals). For total binding measurement 100 μl of binding buffer are added to the respective wells, for non-specific binding 100 μl of 8.4 mM cold vasopressin and for compound testing 100 μl of a serial dilution of each compound in 2% dimethyl sulfoxide. The plate is incubated 1 h at room temperature, centrifuged 1 min at 1000 g and counted on a Packard Top-Count. Non-specific binding counts are subtracted from each well and data is normalized to the maximum specific binding set at 100%. To calculate an IC50 the curve is fitted using a non-linear regression model (XLfit) and the Ki is calculated using the Cheng-Prussoff equation.

Setting [1] is: 3H-Vasopressin displacement, membranes of HEK293 cells transiently transfected with human V1a receptor, Ki by Cheng-Prusoff, read-out: pKi (hV1a) (converted).

Counter-ions that a name gives are not always drawn. Like-named read-outs stand apart in the source and are kept apart here.

T1 sequence (P37288 whole entry): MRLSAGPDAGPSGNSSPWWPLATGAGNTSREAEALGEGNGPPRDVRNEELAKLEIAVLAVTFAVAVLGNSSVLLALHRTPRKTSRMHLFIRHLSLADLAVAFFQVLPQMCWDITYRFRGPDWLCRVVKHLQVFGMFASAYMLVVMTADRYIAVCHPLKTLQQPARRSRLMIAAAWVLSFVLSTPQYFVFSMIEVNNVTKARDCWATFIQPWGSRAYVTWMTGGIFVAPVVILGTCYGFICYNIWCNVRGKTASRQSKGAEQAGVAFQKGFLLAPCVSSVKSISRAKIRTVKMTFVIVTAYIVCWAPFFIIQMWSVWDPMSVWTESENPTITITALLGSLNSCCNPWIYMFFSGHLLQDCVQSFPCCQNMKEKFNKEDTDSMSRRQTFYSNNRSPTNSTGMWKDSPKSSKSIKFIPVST

Compound `CN1Cc2cc(Cl)ccc2-n2c(nnc2[C@H]2CC[C@@H](c3noc4ccccc43)CC2)C1` [Example 4, cis-1-(4-Benzo[d]isoxazol-3-yl-cyclohexyl)-8-chloro-5-methyl-5,6-dihydro-4H-2,3,5,10b-tetraaza-benzo[e]azulene] showed a Ki of 7.59 nM.
`CN1Cc2cc(Cl)ccc2-n2c(nnc2[C@H]2CC[C@@H](c3nsc4ccccc43)CC2)C1` [Example 35, cis-1-(4-Benzo[d]isothiazol-3-yl-cyclohexyl)-8-chloro-5-methyl-5,6-dihydro-4H-2,3,5,10b-tetraaza-benzo[e]azulene]: the Ki under setting [1] is 4.27 nM.
Consider `CC(C)(C)OC(=O)N1Cc2cc(Cl)ccc2-n2c(nnc2[C@H]2CC[C@H](c3nsc4ccccc43)CC2)C1` [Example 19, trans-1-(4-Benzo[d]isothiazol-3-yl-cyclohexyl)-8-chloro-4H,6H-2,3,5,10b-tetraaza-benzo[e]azulene-5-carboxylic acid tert-butyl ester], for which the Ki under setting [1] is 7.59 nM.
Turning to `Fc1ccc2c(c1)onc2[C@H]1CC[C@H](c2nnc3n2-c2ccc(Cl)cc2CNC3)CC1` [Example 8, trans-8-Chloro-1-[4-(6-fluoro-benzo[d]isoxazol-3-yl)-cyclohexyl]-5,6-dihydro-4H-2,3,5,10b-tetraaza-benzo[e]azulene hydrochloride], under setting [1], the Ki is 1.51 nM.
Same read-out and setting: the value for `Clc1ccc2c(c1)CNCc1nnc([C@H]3CC[C@H](c4nsc5cnccc54)CC3)n1-2` [Example 31, trans-8-Chloro-1-(4-isothiazolo[5,4-c]pyridin-3-yl-cyclohexyl)-5,6-dihydro-4H-2,3,5,10b-tetraaza-benzo[e]azulene] was 2.57 nM; that for `CN1Cc2cc(Cl)ccc2-n2c(nnc2[C@H]2CC[C@H](c3noc4ccc(F)cc43)CC2)C1` [Example 12, trans-8-Chloro-1-[4-(5-fluoro-benzo[d]isoxazol-3-yl)-cyclohexyl]-5-methyl-5,6-dihydro-4H-2,3,5,10b-tetraaza-benzo[e]azulene] was 0.794 nM.
Turning to `Clc1ccc2c(c1)CNCc1nnc([C@H]3CC[C@H](c4noc5cccnc54)CC3)n1-2` [Example 14, trans-8-Chloro-1-(4-isoxazolo[4,5-b]pyridin-3-yl-cyclohexyl)-5,6-dihydro-4H-2,3,5,10b-tetraaza-benzo[e]azulene hydrochloride], the Ki under setting [1] was 2.19 nM.
Compound `Clc1ccc2c(c1)CNCc1nnc([C@H]3CC[C@H](c4nsc5ccccc54)CC3)n1-2` [Example 20, trans-1-(4-Benzo[d]isothiazol-3-yl-cyclohexyl)-8-chloro-5,6-dihydro-4H-2,3,5,10b-tetraaza-benzo[e]azulene hydrochloride] showed a Ki of 1.51 nM.
On to `CC(C)(C)OC(=O)N1Cc2cc(Cl)ccc2-n2c(nnc2[C@H]2CC[C@H](c3noc4cc(F)ccc43)CC2)C1` [Example 7, trans-8-Chloro-[4-(6-fluoro-benzo[d]isoxazol-3-yl)-cyclohexyl]-4H,6H-2,3,5,10b-tetraaza-benzo[e]azulene-5-carboxylic acid tert-butyl ester], for which the Ki under setting [1] was 4.79 nM.
On to `CN1Cc2cc(Cl)ccc2-n2c(nnc2[C@H]2CC[C@H](c3nsc4cnccc43)CC2)C1` [Example 32], for which, under setting [1], the Ki is 0.891 nM.
As for `CC(C)(C)OC(=O)N1Cc2cc(Cl)ccc2-n2c(nnc2[C@H]2CC[C@H](c3nsc4cnccc43)CC2)C1` [Example 30], the Ki under setting [1] was 5.5 nM.
The same measure, in the same setting: the value for `CN(C)CC(=O)N1Cc2cc(Cl)ccc2-n2c(nnc2[C@H]2CC[C@H](c3nsc4ccccc43)CC2)C1` [Example 25, trans-1-[1-(4-Benzo[d]isothiazol-3-yl-cyclohexyl)-8-chloro-4H,6H-2,3,5,10b-tetraaza-benzo[e]azulen-5-yl]-2-dimethylamino-ethanone] was 0.302 nM; that for `CS(=O)(=O)N1Cc2cc(Cl)ccc2-n2c(nnc2[C@H]2CC[C@H](c3nsc4ccccc43)CC2)C1` [Example 26, trans-1-(4-Benzo[d]isothiazol-3-yl-cyclohexyl)-8-chloro-5-methanesulfonyl-5,6-dihydro-4H-2,3,5,10b-tetraaza-benzo[e]azulene] was 0.302 nM.
As for `CN1Cc2cc(Cl)ccc2-n2c(nnc2[C@H]2CC[C@H](c3noc4ncccc43)CC2)C1` [Example 18, trans-8-Chloro-1-(4-isoxazolo[5,4-b]pyridin-3-yl-cyclohexyl)-5-methyl-5,6-dihydro-4H-2,3,5,10b-tetraaza-benzo[e]azulene], the Ki under setting [1] is 0.891 nM.
Take `CC(C)(C)OC(=O)N1Cc2cc(Cl)ccc2-n2c(nnc2[C@H]2CC[C@H](c3noc4cccnc43)CC2)C1` [Example 13, trans-8-Chloro-1-(4-isoxazolo[4,5-b]pyridin-3-yl-cyclohexyl)-4H,6H-2,3,5,10b-tetraaza-benzo[e]azulene-5-carboxylic acid tert-butyl ester]: the Ki under setting [1] was 2.69 nM.
In the case of `CC(C)(C)OC(=O)N1Cc2cc(Cl)ccc2-n2c(nnc2[C@H]2CC[C@H](c3nsc4cccnc43)CC2)C1` [Example 27, trans-8-Chloro-1-(4-isothiazolo[4,5-b]pyridin-3-yl-cyclohexyl)-4H,6H-2,3,5,10b-tetraaza-benzo[e]azulene-5-carboxylic acid tert-butyl ester], the Ki under setting [1] is 4.27 nM.
For `CNCCN1Cc2cc(Cl)ccc2-n2c(nnc2[C@H]2CC[C@H](c3nsc4ccccc43)CC2)C1` [Example 23, trans-{2-[1-(4-Benzo[d]isothiazol-3-yl-cyclohexyl)-8-chloro-4H,6H-2,3,5,10b-tetraaza-benzo[e]azulen-5-yl]-ethyl}-methyl-amine], under setting [1], the Ki was 0.603 nM.
Regarding `Fc1ccc2onc([C@H]3CC[C@H](c4nnc5n4-c4ccc(Cl)cc4CNC5)CC3)c2c1` [Example 11, trans-8-Chloro-1-[4-(5-fluoro-benzo[d]isoxazol-3-yl)-cyclohexyl]-5,6-dihydro-4H-2,3,5,10b-tetraaza-benzo[e]azulene hydrochloride], under setting [1], the Ki was 2.09 nM.
In the case of `CN1Cc2cc(Cl)ccc2-n2c(nnc2[C@H]2CC[C@H](c3noc4cc(F)ccc43)CC2)C1` [Example 9, trans-8-Chloro-1-[4-(6-fluoro-benzo[d]isoxazol-3-yl)-cyclohexyl]-5-methyl-5,6-dihydro-4H-2,3,5,10b-tetraaza-benzo[e]azulene], the Ki under setting [1] was 1.2 nM.
On to `CC(C)(C)OC(=O)N1Cc2cc(Cl)ccc2-n2c(nnc2[C@H]2CC[C@@H](c3nsc4ccccc43)CC2)C1` [Example 33, cis-1-(4-Benzo[d]isothiazol-3-yl-cyclohexyl)-8-chloro-4H,6H-2,3,5,10b-tetraaza-benzo[e]azulene-5-carboxylic acid tert-butyl ester], for which the Ki under setting [1] was 1.1 nM.
Turning to `Clc1ccc2c(c1)CNCc1nnc([C@H]3CC[C@H](c4nsc5cccnc54)CC3)n1-2` [Example 28, trans-8-Chloro-1-(4-isothiazolo[4,5-b]pyridin-3-yl-cyclohexyl)-5,6-dihydro-4H-2,3,5,10b-tetraaza-benzo[e]azulene], under setting [1], the Ki was 1.1 nM.
For `Clc1ccc2c(c1)CNCc1nnc([C@H]3CC[C@H](c4noc5ncccc54)CC3)n1-2` [Example 17, trans-8-Chloro-1-(4-isoxazolo[5,4-b]pyridin-3-yl-cyclohexyl)-5,6-dihydro-4H-2,3,5,10b-tetraaza-benzo[e]azulene hydrochloride], under setting [1], the Ki was 5.25 nM.

For the origin of these results see US8481528B2 (Hoffmann-La Roche Inc., priority 2010, dated 2013).
